{"source": "ChEMBL document CHEMBL5252595", "about": "“A Quarter Century of Marine Biodiscovery in Algoa Bay, South Africa” (J Nat Prod, 2023)", "key": {"[1]": {"assay": "Anticancer activity against human WHCO1 cells assessed as cell growth incubated for 24 hrs by MTT assay", "type": "functional, cell-based", "conditions": "WHCO1, 24 h"}, "[2]": {"test_system": "MDA-MB-231", "assay": "Anticancer activity against human MDA-MB-231 cells assessed as cell growth incubated for 24 hrs by MTT assay", "type": "functional, cell-based", "conditions": "MDA-MB-231, 24 h"}, "[3]": {"test_system": "SNB-19", "assay": "Anticancer activity against human SNB-19 cells assessed as cell growth inhibition", "type": "functional, cell-based"}, "[4]": {"test_system": "A549", "assay": "Anticancer activity against human A549 cells assessed as cell growth inhibition", "type": "functional, cell-based"}, "[5]": {"test_system": "LOX IMVI", "assay": "Anticancer activity against human LOX IMVI cells assessed as cell growth inhibition", "type": "functional, cell-based"}, "[6]": {"test_system": "OVCAR-3", "assay": "Anticancer activity against human OVCAR-3 cells assessed as cell growth inhibition", "type": "functional, cell-based"}, "[7]": {"assay": "Anticancer activity against human U-87 MG cells assessed as cell growth inhibition", "type": "functional, U-87MG ATCC", "conditions": "read-out: LC50 (the source's name)"}, "[8]": {"test_system": "HCT-116", "assay": "Anticancer activity against human HCT-116 cells assessed as cell growth inhibition", "type": "functional", "conditions": "read-out: LC50 (the source's name)"}, "[9]": {"test_system": "NCI-H460", "assay": "Anticancer activity against human NCI-H460 cells assessed as cell growth incubated for 48 hrs by MTT assay", "type": "functional, cell-based", "conditions": "NCI-H460, 48 h"}}}
{"smiles": "C/C(=C\\Cc1cc(O)c(C)cc1O)CC/C=C(\\C)CC(=O)CC(C)C", "values": [{"measurement": "IC50", "setting": "[1]", "value": 9.5, "unit": "µM"}]}
{"smiles": "Brc1ccc2c(Br)c[nH]c2c1", "values": [{"measurement": "IC50", "setting": "[2]", "value": 118, "unit": "µM"}]}
{"smiles": "Clc1c[nH]c2cc(Br)ccc12", "values": [{"measurement": "IC50", "setting": "[2]", "value": 73, "unit": "µM"}]}
{"smiles": "CCCCCCCC/C=C/C=C/[C@@H](C)N", "values": [{"measurement": "IC50", "setting": "[3]", "value": 30, "unit": "µM"}, {"measurement": "IC50", "setting": "[4]", "value": 30, "unit": "µM"}, {"measurement": "IC50", "setting": "[5]", "value": 30, "unit": "µM"}, {"measurement": "IC50", "setting": "[6]", "value": 30, "unit": "µM"}]}
{"smiles": "CC.CCCCCCCC(=O)OC[C@@H]1C[C@H](O)[C@@H]2C[C@H](C)[C@H](C/C=C\\C=C\\[C@H](C)C[C@@H]3C[C@H](O[C@@H]4O[C@@H](C)[C@H](O)[C@@H](O)[C@H]4OC)C[C@H](C/C=C/C(=O)O1)O3)O2", "values": [{"measurement": "CC50", "setting": "[7]", "value": 0.061, "unit": "µM"}, {"measurement": "CC50", "setting": "[8]", "value": 0.054, "unit": "µM"}]}
{"smiles": "O=C1C[C@H]2S[C@H]3C[C@]2(C=C1Br)C1=C(N3)C(=O)c2[nH]cc3c2C1=NCC3", "note": "[DISCORHABDINE A]", "values": [{"measurement": "IC50", "setting": "[1]", "value": 0.017, "unit": "µM"}]}
{"smiles": "O=C1Cc2ccc(Br)cc2N1", "values": [{"measurement": "IC50", "setting": "[2]", "value": 74, "unit": "µM"}]}
{"smiles": "CO[C@H]1[C@H](O[C@@H]2C[C@@H]3C/C=C/C(=O)O[C@H](CO)C[C@H](O)[C@@H]4C[C@H](C)[C@H](C/C=C\\C=C\\[C@H](C)C[C@H](C2)O3)O4)O[C@@H](C)[C@H](O)[C@H]1O", "values": [{"measurement": "CC50", "setting": "[7]", "value": 0.00038, "unit": "µM"}, {"measurement": "IC50", "setting": "[9]", "value": 0.012, "unit": "µM"}]}
{"smiles": "CCCC(=O)O[C@@H]1C[C@H]2C[C@@H](O[C@@H]3O[C@@H](C)[C@@H](O)[C@@H](O)[C@H]3OC)C[C@@H](C[C@@H](C)/C=C/C=C\\C[C@@H]3O[C@@H](C[C@@H]3C)[C@@H](O)C[C@H]3C[C@@]1(O)C(=O)O3)O2", "values": [{"measurement": "IC50", "setting": "[9]", "value": 0.044, "unit": "µM"}]}
